Assay results from patent US6884774B2, “Cyclic hexapeptide derivatives” (Fujisawa Pharmaceutical Co. Ltd., priority 2000, dated 2005).
Starred links: 1 amine or outer side, 2 acyl side, 3 side chain; linkers in the order of their positions; H or OH if unused. Positions of bridges follow the written chain, without caps; N, C: chain ends. Non-standard residues stand in square brackets, D forms with d. Residues, ends and D or L forms follow the SMILES beside them. *: point of attachment. X2 = C[C@H]1CC[C@@H](N2CCN(c3ccc(-c4nnc(-c5ccc(C(=O)*)cc5)s4)cc3)CC2)CC1; hTyr(3R-OH,3'-OSO3H) = N[C@H](C(=O)O)[C@H](O)Cc1ccc(O)c(OS(=O)(=O)O)c1; X3 = COCCCCCOC1CCN(c2ccc(-c3nn4cc(-c5ccc(C(=O)*)cc5)nc4s3)cc2)CC1; Orn(3R-OH,Nδ-CH(CH2OH)2) = N[C@H](C(=O)O)[C@H](O)CCNC(CO)CO; X4 = COCCCCOc1ccc(-c2nn3cc(-c4ccc(C(=O)*)cc4)nc3s2)cc1; Orn(4R-OH) = O=C([C@H](C[C@@H](O)CN[*:3])N[*:1])[*:2]; X1 = COCCCCCCOc1ccc(-c2cc(-c3ccc(C(=O)*)cc3)no2)cc1; Pro(3S-OH,4S-Me) = C[C@H]1CN[C@H](C(=O)O)[C@H]1O; Hyp = O=C(O)[C@@H]1C[C@@H](O)CN1

System: Candida albicans FP-633
Assay type: cell-based
Details: FP-633, 24 h, pH 7.3
Protocol: In vitro antimicrobial activity of the object compound of Examples 4, 9, 25 and 30 disclosed later was determined by MICs in mouse serum as described below. The MICs in mouse serum were determined by the microdilution method using ICR mouse serum buffered with 20 mM HEPES buffer (pH 7.3) as a test medium. Inoculum suspension of 10^6 cells/ml were prepared by a hemocytometric procedure and diluted to obtain an inoculum size of approximately 1.0×10^3 cells/ml. Microplates were incubated at 37° C. for 24 hours in 5% CO2. The MICs were defined as the lowest concentrations at which no visible growth was observed.

MIC, <0.3 µg/mL:
COCCCCOc1ccc(-c2nn3cc(-c4ccc(C(=O)N[C@H]5C[C@@H](O)CNC(=O)[C@@H]6[C@@H](O)[C@@H](C)CN6C(=O)[C@H]([C@H](O)CCNC(CO)CO)NC(=O)[C@H]([C@H](O)Cc6ccc(O)c(OS(=O)(=O)O)c6)NC(=O)[C@@H]6C[C@@H](O)CN6C(=O)[C@H]([C@@H](C)O)NC5=O)cc4)nc3s2)cc1 [Example 30] (X4-[Orn(4R-OH)]T[Hyp][hTyr(3R-OH,3'-OSO3H)][Orn(3R-OH,Nδ-CH(CH2OH)2)][Pro(3S-OH,4S-Me)]; lactam 1-C)
COCCCCCCOc1ccc(-c2cc(-c3ccc(C(=O)N[C@H]4C[C@@H](O)CNC(=O)[C@@H]5[C@@H](O)[C@@H](C)CN5C(=O)[C@H]([C@H](O)CCNC(CO)CO)NC(=O)[C@H]([C@H](O)Cc5ccc(O)c(OS(=O)(=O)O)c5)NC(=O)[C@@H]5C[C@@H](O)CN5C(=O)[C@H]([C@@H](C)O)NC4=O)cc3)no2)cc1 [Example 25] (X1-[Orn(4R-OH)]T[Hyp][hTyr(3R-OH,3'-OSO3H)][Orn(3R-OH,Nδ-CH(CH2OH)2)][Pro(3S-OH,4S-Me)]; lactam 1-C)
COCCCCCOC1CCN(c2ccc(-c3nn4cc(-c5ccc(C(=O)N[C@H]6C[C@@H](O)CNC(=O)[C@@H]7[C@@H](O)[C@@H](C)CN7C(=O)[C@H]([C@H](O)CCNC(CO)CO)NC(=O)[C@H]([C@H](O)Cc7ccc(O)c(OS(=O)(=O)O)c7)NC(=O)[C@@H]7C[C@@H](O)CN7C(=O)[C@H]([C@@H](C)O)NC6=O)cc5)nc4s3)cc2)CC1 [Example 4] (X3-[Orn(4R-OH)]T[Hyp][hTyr(3R-OH,3'-OSO3H)][Orn(3R-OH,Nδ-CH(CH2OH)2)][Pro(3S-OH,4S-Me)]; lactam 1-C)
C[C@@H](O)[C@@H]1NC(=O)[C@@H](NC(=O)c2ccc(-c3nnc(-c4ccc(N5CCN([C@H]6CC[C@@H](C)CC6)CC5)cc4)s3)cc2)C[C@@H](O)CNC(=O)[C@@H]2[C@@H](O)[C@@H](C)CN2C(=O)[C@H]([C@H](O)CCNC(CO)CO)NC(=O)[C@H]([C@H](O)Cc2ccc(O)c(OS(=O)(=O)O)c2)NC(=O)[C@@H]2C[C@@H](O)CN2C1=O [Example 9] (X2-[Orn(4R-OH)]T[Hyp][hTyr(3R-OH,3'-OSO3H)][Orn(3R-OH,Nδ-CH(CH2OH)2)][Pro(3S-OH,4S-Me)]; lactam 1-C)
